Source: publication PMC10762035, “Molecular basis of human trace amine-associated receptor 1 activation” (Nature Communications, 2024)
Where a chain is given by its changes, count along the chain named. Values joined by “and” are separate entries in the source; they are usually repeats but may differ in a detail not shown here. Equal values may be shown once.

Columns and labels:
[1] = molecular target: T1, β2AR-Nterm-hTA1-F112^3.41W (CryoEM Construct) (Homo sapiens, UniProt Q96RJ0, F112W); assay: GloSensor cAMP accumulation assay, cryoEM construct; type: cell-based;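 also: cells transiently co-transfected with the receptor construct and GloSensor cAMP biosensor, luminescence read after 30 min compound exposure at room temperature in the dark as cAMP accumulation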;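 as to Normalized Luminescence Counts (N=2): normalized to the maximum response of β-PEA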
T1 construct: FLAG (N); 10xHis (N); TEV protease site (N); expressed in transfected cells; host or cells: HEK293T
T1 sequence (Q96RJ0 with tags, fused parts or gaps F112W): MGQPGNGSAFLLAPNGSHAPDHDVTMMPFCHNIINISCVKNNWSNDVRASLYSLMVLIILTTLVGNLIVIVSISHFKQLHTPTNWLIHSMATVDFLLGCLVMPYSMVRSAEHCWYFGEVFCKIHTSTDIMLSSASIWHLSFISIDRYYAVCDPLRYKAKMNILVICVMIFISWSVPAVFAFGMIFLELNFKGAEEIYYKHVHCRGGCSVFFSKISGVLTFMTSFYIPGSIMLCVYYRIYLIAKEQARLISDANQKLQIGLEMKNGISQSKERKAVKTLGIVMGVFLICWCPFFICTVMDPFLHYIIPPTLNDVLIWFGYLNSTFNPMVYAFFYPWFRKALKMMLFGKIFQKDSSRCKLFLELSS

hTA1 C5S = molecular target: T2, hTA1 C5S (Homo sapiens, UniProt Q96RJ0, C5S); assay: GloSensor cAMP accumulation assay, C5S mutant; type: cell-based; details: for C5S - Normalized Luminescence Counts (N=2): log[Compound], single wells
T2 construct: expressed in transfected cells; host or cells: HEK293T
T2 sequence (Q96RJ0 1-339 C5S): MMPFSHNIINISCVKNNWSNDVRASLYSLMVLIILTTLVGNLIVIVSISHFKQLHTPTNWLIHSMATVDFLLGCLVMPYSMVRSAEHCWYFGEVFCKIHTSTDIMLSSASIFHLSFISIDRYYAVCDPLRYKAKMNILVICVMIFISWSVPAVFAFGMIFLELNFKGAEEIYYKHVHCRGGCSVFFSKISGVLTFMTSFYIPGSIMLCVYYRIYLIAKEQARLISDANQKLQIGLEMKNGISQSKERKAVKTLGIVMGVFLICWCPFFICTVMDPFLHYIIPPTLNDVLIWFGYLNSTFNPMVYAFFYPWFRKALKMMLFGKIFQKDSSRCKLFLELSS

hTA1 C13S = molecular target: T3, hTA1 C13S (Homo sapiens, UniProt Q96RJ0, C13S); assay: GloSensor cAMP accumulation assay, C13S mutant; type: cell-based; details: for C13S - Normalized Luminescence Counts (N=2): log[Compound], single wells
T3 construct: expressed in transfected cells; host or cells: HEK293T
T3 sequence (Q96RJ0 1-339 C13S): T2 sequence (Q96RJ0 1-339 C5S) with S5C, C13S

hTA1 I290Y = molecular target: T4, hTA1 I290Y (Homo sapiens, UniProt Q96RJ0, I290Y); assay: GloSensor cAMP accumulation assay, I290Y mutant; type: cell-based; details: for cAMP accumulation response, normalized (concentration-response source data, single replicate values): hTA1 I290Y (N=3), log[Compound];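 as to cAMP accumulation response, normalized (concentration-response source data, single replicate values): normalized to the maximum response of β-PEA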
T4 construct: expressed in transfected cells; host or cells: HEK293T
T4 sequence (Q96RJ0 1-339 I290Y): T2 sequence (Q96RJ0 1-339 C5S) with S5C, I290Y

hTA1 T194A = molecular target: T5, hTA1 T194A (Homo sapiens, UniProt Q96RJ0, T194A); assay: GloSensor cAMP accumulation assay, T194A mutant
T5 sequence (Q96RJ0 1-339 T194A): T2 sequence (Q96RJ0 1-339 C5S) with S5C, T194A

[2] = Cryo EM Construct minus WT average
[3] = Cryo EM Construct, mean of each independent experiment (3 replicates)

Cc1c(F)cccc1[C@H]1COC(N)=N1 [Ro5263397] was tested, and the “ΔEmax values (each mutant value - WT average), Mean” value [1, 2] was 19.0137 and 21.294, the “ΔpEC50 values (each mutant value - WT average), Mean” value (shortened to “ΔpEC50 values”) [1, 2] was -0.1667 and 0.1313 and the “Emax values, Mean” value [1, 3] was -0.1667 and 0.1313. For the same compound, the “pEC50 values, Mean” value [1, 3] was 8.664 and 8.962, the “Normalized Luminescence Counts (N=2)” value ([1]; CryoEM Construct, log[Compound], M = -5, single replicates) was 130.633 and 139.904 and 147.826 and 114.773 and the “Span ± SEM (Emax normalized to β-PEA)” value ([1]; CryoEM Construct, n=2) was 106.6 ± 2.69. For the same compound, the “pEC50 ± SEM” value ([1]; CryoEM Construct, n=2) was 8.82 ± 0.06, the EC50 ([1]; CryoEM Construct, n=2, read-out: EC50) was 1.5 nM and the “Span ± SEM (Emax normalized to β-PEA)” value (hTA1 C5S; C5S, n=2) was 85.5 ± 2.16. The “pEC50 ± SEM” value (hTA1 C5S; C5S, n=2) was 8.41 ± 0.07, the EC50 (hTA1 C5S; C5S, n=2, read-out: EC50) was 3.89 nM and the “ΔpEC50 values” value (hTA1 C5S; hTA1 C5S minus WT average) was -0.4275 and -0.4158. For the same compound, the “pEC50 values, Mean” value (hTA1 C5S; hTA1 C5S, mean of 3 replicates, one line per independent experiment) was 8.404 and 8.415, the “Emax values, Mean” value (hTA1 C5S; hTA1 C5S, β-PEA = 100, mean of 3 replicates, one line per independent experiment) was 87.6591 and 83.3363 and the “C5S - Normalized Luminescence Counts (N=2)” value (hTA1 C5S; M = -5) was 85.0708 and 100.74 and 87.5995 and 113.126 and 96.6929 and 89.5813. The “C5S - Normalized Luminescence Counts (N=2)” value (hTA1 C5S; M = -5.522) was 97.1276 and 85.703 and 92.1378 and 95.6573 and 94.8978 and 70.801, the “C5S - Normalized Luminescence Counts (N=2)” value (hTA1 C5S; M = -6) was 93.0635 and 85.8836 and 79.9907 and 67.4868 and 91.9288 and 67.763 and the “C5S - Normalized Luminescence Counts (N=2)” value (hTA1 C5S; M = -6.522) was 88.5027 and 85.5675 and 89.6542 and 93.5169 and 82.6077 and 78.2579. For the same compound, the “C5S - Normalized Luminescence Counts (N=2)” value (hTA1 C5S; M = -7) was 87.2609 and 83.7612 and 87.2157 and 111.607 and 73.6318 and 82.4696, the “C5S - Normalized Luminescence Counts (N=2)” value (hTA1 C5S; M = -7.522) was 71.4335 and 67.6629 and 81.3002 and 85.1624 and 76.2555 and 81.6411 and the “C5S - Normalized Luminescence Counts (N=2)” value (hTA1 C5S; M = -8) was 61.928 and 52.9645 and 61.8152 and 50.2945 and 70.0415 and 59.7537. The “C5S - Normalized Luminescence Counts (N=2)” value (hTA1 C5S; M = -8.522) was 48.2456 and 39.1466 and 43.2332 and 39.9378 and 36.8998 and 46.1518, the “C5S - Normalized Luminescence Counts (N=2)” value (hTA1 C5S; M = -9) was 23.0031 and 19.2551 and 16.9296 and 21.986 and 33.2404 and 18.948 and the “C5S - Normalized Luminescence Counts (N=2)” value (hTA1 C5S; M = -9.522) was 10.2012 and 7.989 and 6.476 and 12.3887 and 12.803 and 8.1079. For the same compound, the Emax values (hTA1 C13S; C13S, Mean of fit per experiment) was 73.5469 and 88.9072, the “Span ± SEM (Emax normalized to β-PEA)” value (hTA1 C13S; C13S, n=2) was 81.23 ± 7.68 and the “pEC50 ± SEM” value (hTA1 C13S; C13S, n=2) was 8.6 ± 0.08. The EC50 (hTA1 C13S; C13S, n=2, read-out: EC50) was 2.48 nM, the “pEC50 values, Mean” value (hTA1 C13S; hTA1 C13S, mean of 3 replicates, one line per independent experiment) was 8.7547 and 8.4539 and the “C13S - Normalized Luminescence Counts (N=2)” value (hTA1 C13S; M = -5) was 76.1278 and 93.1423 and 84.8444 and 95.4829 and 105.462 and 103.819. For the same compound, the “C13S - Normalized Luminescence Counts (N=2)” value (hTA1 C13S; M = -5.522) was 68.8196 and 89.374 and 78.4497 and 85.6471 and 106.265 and 88.9317, the “C13S - Normalized Luminescence Counts (N=2)” value (hTA1 C13S; M = -6) was 64.1759 and 93.599 and 66.6881 and 75.8649 and 92.3769 and 86.7896 and the “C13S - Normalized Luminescence Counts (N=2)” value (hTA1 C13S; M = -6.522) was 56.487 and 80.4671 and 60.7882 and 74.8831 and 89.3601 and 80.042. The “Span ± SEM (Emax normalized to β-PEA)” value (hTA1 I290Y; I290Y) was 61.58 ± 3.99, the “pEC50 ± SEM” value (hTA1 I290Y; I290Y) was 9.16 ± 0.18 and the EC50 (hTA1 I290Y; I290Y, read-out: EC50) was 0.69 nM and 0.7 nM. The “Emax values, Mean” value (hTA1 I290Y; I290Y, single experiments (3 replicates each), β-PEA = 100) was 59.7265 and 69.2263 and 55.7889, the “cAMP accumulation response, normalized (concentration-response source data, single replicate values)” value (“cAMP accumulation response, normalized” for short) (hTA1 I290Y; M = -5) was 77.8381 and 104.308 and 85.2251 and 91.2333 and 75.1101 and 85.0039 and 68.1063 and 86.1539 and 148.193 and the “cAMP accumulation response, normalized” value (hTA1 I290Y; M = -5.522) was 49.5212 and 78.7614 and 62.4485 and 78.7745 and 74.7437 and 50.1924 and 55.6986 and 43.2908 and 39.9069. For the same compound, the “cAMP accumulation response, normalized” value (hTA1 I290Y; M = -6) was 40.5953 and 87.0718 and 61.2173 and 64.117 and 63.3841 and 61.5519 and 45.5468 (2×) and 50.0587, the “cAMP accumulation response, normalized” value (hTA1 I290Y; M = -6.522) was 56.6004 and 53.5225 and 48.9057 and 84.6375 and 52.7574 and 75.4765 and 66.9783 and 45.5468 and 38.7789 and the “cAMP accumulation response, normalized” value (hTA1 I290Y; M = -7) was 35.3628 and 69.2199 and 41.5187 and 56.0554 and 64.117 and 50.9252 and 46.6748 and 39.9069 and 45.5468. The “cAMP accumulation response, normalized” value (hTA1 I290Y; M = -7.522) was 46.4433 and 76.2991 and 50.1368 and 60.819 and 63.0177 and 60.4526 and 39.9069 and 45.5468 and 47.8027, the “cAMP accumulation response, normalized” value (hTA1 I290Y; M = -8) was 61.8329 and 86.4562 and 67.9887 and 68.1478 and 70.3464 and 73.6443 and 36.523 and 37.651 and 32.0111 and the “cAMP accumulation response, normalized” value (hTA1 I290Y; M = -8.522) was 54.7537 and 78.4536 and 76.2991 and 69.98 and 71.4457 and 63.7505 and 30.8831 and 33.1391 (2×). For the same compound, the “cAMP accumulation response, normalized” value (hTA1 I290Y; M = -9) was 45.2122 and 78.7614 and 61.8329 and 45.0622 and 50.1924 and 56.0554 and 15.0915 and 19.6034 and 12.8355, the “cAMP accumulation response, normalized” value (hTA1 I290Y; M = -9.522) was 19.3577 and 32.5927 and 26.1291 and 49.4595 and 39.5657 and 25.2746 and 3.812 (2×) and 8.324 and the “cAMP accumulation response, normalized” value (hTA1 I290Y; M = -10) was 27.9758 and 29.5148 and 27.3602 and 7.319 and 9.884 and 17.5794 and 0.4278 and 2.684 and 7.196. The “cAMP accumulation response, normalized” value (hTA1 I290Y; M = -10.522) was 6.738, the “ΔpEC50 values” value (hTA1 T194A; T149A (so in the source) minus WT average) was -1.583 and -1.53 and -1.429 and the “pEC50 values, Mean” value (hTA1 T194A; T149A (so in the source), single experiments (3 replicates each)) was 7.248 and 7.301 and 7.402. For the same compound, the “Emax values, Mean” value (hTA1 T194A; T149A (so in the source), single experiments (3 replicates each), β-PEA = 100) was 143.384 and 86.8999 and 99.8921, the EC50 (hTA1 T194A; T194A) was 56.4 nM and the “Span ± SEM (Emax normalized to β-PEA)” value (hTA1 T194A; T194A) was 110.06. The “pEC50 ± SEM” value (hTA1 T194A; T194A) was 7.32 ± 0.14 and the “reduction in potency vs wild type” value (hTA1 T194A; T194A) was “over 30 fold”.
